Results published in patent publication US20130071854A1, “METHODS FOR THE IDENTIFICATION AND CHARACTERIZATION OF HDAC INTERACTING COMPOUNDS” (priority 2009, published 2013).
pKd: −log10 of the molar value. Like-named read-outs stand apart in the source and are kept apart here.

Columns and labels:
CoREST complex = test: Chemoproteomic binding profiling, K562 cell extract, SAHA/ITF2357 probe matrix (Kd app); parameters: species or system human
NuRD complex = test: as above; parameters: species or system human
[1] = biological target: T1, non-HDAC targets (e.g. BZW2, ISOC2, aldehyde dehydrogenases) (Homo sapiens, UniProt O94788); test: as above; settings: protein ALDH1A2; selected HDACi off-targets
T1 construct: endogenous in cells; host or cells: K562 whole cell extract
T1 sequence (O94788 1-518): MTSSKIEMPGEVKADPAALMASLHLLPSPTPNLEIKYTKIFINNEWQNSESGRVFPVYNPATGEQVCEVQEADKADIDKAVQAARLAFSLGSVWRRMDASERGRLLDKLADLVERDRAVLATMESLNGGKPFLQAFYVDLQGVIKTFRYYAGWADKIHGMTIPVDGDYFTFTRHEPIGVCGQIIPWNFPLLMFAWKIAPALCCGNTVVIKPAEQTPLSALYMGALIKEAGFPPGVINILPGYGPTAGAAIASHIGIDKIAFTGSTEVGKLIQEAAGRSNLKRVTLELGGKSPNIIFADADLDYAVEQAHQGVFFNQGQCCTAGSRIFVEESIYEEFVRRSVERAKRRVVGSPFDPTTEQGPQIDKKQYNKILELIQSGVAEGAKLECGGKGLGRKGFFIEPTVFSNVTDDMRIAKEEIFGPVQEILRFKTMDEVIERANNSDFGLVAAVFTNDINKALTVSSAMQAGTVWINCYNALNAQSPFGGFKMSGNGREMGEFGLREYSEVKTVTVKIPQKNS

[2] = biological target: T2, non-HDAC targets (e.g. BZW2, ISOC2, aldehyde dehydrogenases) (Homo sapiens, UniProt P16152); test: as above; settings: protein CBR1; selected HDACi off-targets
T2 construct: Kd^app CBR1; other: protein CBR1; selected HDACi off-targets
T2 sequence (P16152 1-277): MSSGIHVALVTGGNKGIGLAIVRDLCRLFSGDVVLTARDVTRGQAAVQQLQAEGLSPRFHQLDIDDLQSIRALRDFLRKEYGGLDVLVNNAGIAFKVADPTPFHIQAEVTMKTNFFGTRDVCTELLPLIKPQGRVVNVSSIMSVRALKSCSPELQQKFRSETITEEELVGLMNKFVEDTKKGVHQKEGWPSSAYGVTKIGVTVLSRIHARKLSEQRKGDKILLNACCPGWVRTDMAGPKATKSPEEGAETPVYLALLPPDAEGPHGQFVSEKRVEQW

[3] = biological target: T3, non-HDAC targets (e.g. BZW2, ISOC2, aldehyde dehydrogenases) (Homo sapiens, UniProt Q08209); test: as above; settings: protein PPP3CA; selected HDACi off-targets
T3 construct: Kd^app PPP3CA; other: protein PPP3CA; selected HDACi off-targets

[4] = biological target: T4, non-HDAC targets (e.g. BZW2, ISOC2, aldehyde dehydrogenases) (Homo sapiens, UniProt Q96AB3); test: as above; settings: protein ISOC2; selected HDACi off-targets
T4 construct: endogenous in cells; host or cells: K562 whole cell extract
T4 sequence (Q96AB3 1-205): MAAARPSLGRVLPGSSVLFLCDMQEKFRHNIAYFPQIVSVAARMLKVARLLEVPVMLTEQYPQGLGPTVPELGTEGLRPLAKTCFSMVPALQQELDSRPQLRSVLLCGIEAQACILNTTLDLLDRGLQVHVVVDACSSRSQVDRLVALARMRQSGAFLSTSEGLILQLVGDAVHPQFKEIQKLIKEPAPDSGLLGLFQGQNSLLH

[5] = biological target: T5, non-HDAC targets (e.g. BZW2, ISOC2, aldehyde dehydrogenases) (Homo sapiens, UniProt Q9Y6E2); test: as above; settings: protein BZW2; selected HDACi off-targets
T5 construct: endogenous in cells; host or cells: K562 whole cell extract
T5 sequence (Q9Y6E2 1-419): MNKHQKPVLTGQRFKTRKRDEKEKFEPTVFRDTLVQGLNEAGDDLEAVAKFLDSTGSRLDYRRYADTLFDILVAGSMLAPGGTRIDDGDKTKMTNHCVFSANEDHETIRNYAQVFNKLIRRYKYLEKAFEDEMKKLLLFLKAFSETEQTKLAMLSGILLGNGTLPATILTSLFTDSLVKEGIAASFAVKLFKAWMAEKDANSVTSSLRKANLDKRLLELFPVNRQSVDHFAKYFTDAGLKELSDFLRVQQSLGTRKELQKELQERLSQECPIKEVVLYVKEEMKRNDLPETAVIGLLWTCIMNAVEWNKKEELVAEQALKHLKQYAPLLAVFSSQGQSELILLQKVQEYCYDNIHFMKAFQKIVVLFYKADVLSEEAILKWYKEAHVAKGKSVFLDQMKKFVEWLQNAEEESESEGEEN

acetylated tubulin = test: Cell-based tubulin acetylation assay (immunofluorescence, western blotting); parameters: species or system human; settings: K562 and HeLa cells; immunofluorescence and western blotting
[6] = test system: acetylated histones H3 and H4; test: Cell-based histone acetylation assay (immunofluorescence, western blotting); parameters: species or system human; settings: K562 and HeLa cells
MIER1 = test: Chemoproteomic binding profiling, K562 cell extract, SAHA/ITF2357 probe matrix (Kd app), ELSA (ELM-SANT) domain protein; parameters: species or system human; settings: ELSA (ELM-SANT) domain proteins
MIER3 = test: as above; parameters: species or system human; settings: ELSA (ELM-SANT) domain proteins
RERE = test: as above; parameters: species or system human; settings: protein RERE; ELSA (ELM-SANT) domain proteins
MIER2 = test: as above; parameters: species or system human; settings: ELSA (ELM-SANT) domain proteins
EHMT2 = test: Chemoproteomic binding profiling, K562 cell extract, SAHA/ITF2357 probe matrix (Kd app), ELSA (ELM-SANT) domain proteins group; parameters: species or system human; settings: protein EHMT2
HDAC10 = biological target: T6, HDAC10 (Homo sapiens, UniProt Q969S8); test: Chemoproteomic binding profiling, K562 cell extract, SAHA/ITF2357 probe matrix (Kd app); settings: protein HDAC10; class II HDAC; read-out: Kd^app HDAC10
T6 construct: used to probe endogenous HDACs in K562 whole cell extracts; endogenous in cells
T6 sequence (Q969S8 1-669): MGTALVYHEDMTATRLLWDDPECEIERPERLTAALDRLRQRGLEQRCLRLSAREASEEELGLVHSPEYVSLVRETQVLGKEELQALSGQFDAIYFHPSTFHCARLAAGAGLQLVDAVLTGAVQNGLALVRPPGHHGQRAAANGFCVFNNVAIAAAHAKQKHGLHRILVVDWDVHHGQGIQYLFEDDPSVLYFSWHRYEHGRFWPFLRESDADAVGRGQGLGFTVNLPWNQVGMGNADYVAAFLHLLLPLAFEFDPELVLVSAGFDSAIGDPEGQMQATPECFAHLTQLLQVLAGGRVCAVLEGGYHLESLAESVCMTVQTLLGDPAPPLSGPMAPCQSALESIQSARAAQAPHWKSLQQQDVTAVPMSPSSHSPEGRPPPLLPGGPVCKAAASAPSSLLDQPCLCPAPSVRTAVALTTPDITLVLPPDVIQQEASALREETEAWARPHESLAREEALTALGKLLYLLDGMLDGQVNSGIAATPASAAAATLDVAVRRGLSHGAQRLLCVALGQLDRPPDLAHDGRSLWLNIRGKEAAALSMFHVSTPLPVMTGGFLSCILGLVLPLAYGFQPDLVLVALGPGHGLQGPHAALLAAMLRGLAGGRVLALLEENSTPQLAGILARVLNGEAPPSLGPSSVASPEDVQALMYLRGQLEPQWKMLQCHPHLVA

[7] = protein GSE1, CoREST complex, read-out: Kd^app GSE1
[8] = protein HMG20A, CoREST complex, read-out: Kd^app HMG20A
[9] = protein HMG20B, CoREST complex, read-out: Kd^app HMG20B
[10] = protein PHF21A, CoREST complex, read-out: Kd^app PHF21A
[11] = protein RCOR1, CoREST complex, read-out: Kd^app RCOR1
[12] = protein RCOR3, CoREST complex, read-out: Kd^app RCOR3
[13] = protein ZMYM2, CoREST complex, read-out: Kd^app ZMYM2
[14] = protein GATAD2A, NuRD complex, read-out: Kd^app GATAD2A
[15] = protein GATAD2B, NuRD complex, read-out: Kd^app GATAD2B
[16] = protein MBD3, NuRD complex, read-out: Kd^app MBD3
[17] = protein MTA1, NuRD complex, read-out: Kd^app MTA1
[18] = protein MTA2, NuRD complex, read-out: Kd^app MTA2
[19] = protein MTA3, NuRD complex, read-out: Kd^app MTA3

Compound | pKd (CoREST complex; [7]) | pKd (CoREST complex; [8]) | pKd (CoREST complex; [9]) | pKd (CoREST complex; [10]) | pKd (CoREST complex; [11]) | pKd (CoREST complex; [12]) | pKd (CoREST complex; [13]) | pKd (NuRD complex; [14]) | pKd (NuRD complex; [15]) | pKd (NuRD complex; [16]) | pKd (NuRD complex; [17]) | pKd (NuRD complex; [18]) | pKd [1] | pKd [2] | pKd [3] | pKd [4] | pKd [5] | pKd (MIER1) | pKd (MIER3) | pKd (RERE) | further results
CN(C)Cc1c(C(=O)NCCOc2ccc(C(=O)NO)cc2)oc2ccccc12 [PCI-24781] | 7.70 | 7.70 | 7.52 | 7.30 | 7.70 | 7.70 | 7.70 | 7.22 | 7.15 | 7.40 | 7.30 | 7.22 | < 5.00 | < 5.00 | < 5.00 | < 5.00 | < 5.00 | 7.22 | 7.70 | 6.68 | pKd (CoREST complex; protein RCOR2, CoREST complex, read-out: Kd^app RCOR2): 7.70; pKd (CoREST complex; protein ZMYM3, CoREST complex, read-out: Kd^app ZMYM3): 7.40; pKd (NuRD complex; protein CHD4, NuRD complex, read-out: Kd^app CHD4): 6.80; pKd (NuRD complex; protein MBD2, NuRD complex, read-out: Kd^app MBD2): 6.77; pKd (NuRD complex; [19]): 7.30; tubulin acetylation (in words) (acetylated tubulin): increased steady state acetylation of tubulin and histones; histone acetylation (in words) [6]: increased steady state acetylation of tubulin and histones
O=C(CCCCCN1C(=O)c2cccc3cccc(c23)C1=O)NO [scriptaid] |  |  |  |  |  |  |  |  |  |  |  |  | 5.27 | < 5.00 | < 5.00 | 6.46 | 5.32 |  | 6.49 | 6.10 | pKd (MIER2): 6.09; pKd (EHMT2): 5.89
O=C(/C=C/c1ccc(CN(CCO)CCc2c[nH]c3ccccc23)cc1)NO [dacinostat] | 8.00 | 8.00 | 8.00 | 7.70 | 8.00 | 8.00 | 8.00 | 7.70 | 7.70 | 7.70 | 7.70 | 7.70 | < 5.00 | 6.06 | 5.82 | < 5.00 | 5.77 | 7.70 | 8.00 | < 5.00 | pKd (NuRD complex; [19]): 7.70
Nc1ccccc1NC(=O)c1ccc(CNc2nccc(-c3cccnc3)n2)cc1 [Mocetinostat] |  |  |  |  |  |  |  |  |  |  |  |  | 3.64 | 3.96 | < 3.57 | < 3.57 | < 3.57 | 4.14 | 4.47 | < 3.57 | pKd (HDAC10): < 3.57; pKd (CoREST complex; read-out: Kd^app GSE1): 4.30; pKd (CoREST complex; read-out: Kd^app HMG20A): 4.28; pKd (CoREST complex; read-out: Kd^app HMG20B): 4.21; pKd (CoREST complex; read-out: Kd^app PHF21A): 3.72; pKd (CoREST complex; read-out: Kd^app RCOR1): 4.32; pKd (CoREST complex; read-out: Kd^app RCOR2): 3.99; pKd (CoREST complex; read-out: Kd^app RCOR3): 4.22; pKd (CoREST complex; read-out: Kd^app ZMYM2): 3.91; pKd (CoREST complex; read-out: Kd^app ZMYM3): 3.59; pKd (NuRD complex; read-out: Kd^app CHD4): 3.77; pKd (NuRD complex; read-out: Kd^app GATAD2A): 3.74; pKd (NuRD complex; read-out: Kd^app GATAD2B): 3.97; pKd (NuRD complex; read-out: Kd^app MBD2): 3.66; pKd (NuRD complex; read-out: Kd^app MBD3): 3.92; pKd (NuRD complex; read-out: Kd^app MTA1): 3.87; pKd (NuRD complex; read-out: Kd^app MTA3): 4.06; pKd (MIER2): 4.00; pKd (EHMT2): < 3.57
Cc1[nH]c2ccccc2c1CCNCc1ccc(/C=C/C(=O)NO)cc1 [panobinostat] |  |  |  |  |  |  |  |  |  |  |  |  | < 5.00 | 5.08 | 4.92 | < 5.00 | < 5.00 |  |  |  | 
